11 compounds from article PMC6615261, “Repurposing Azithromycin and Rifampicin Against Gram-Negative Pathogens by Combination With Peptidomimetics” (Frontiers in Cellular and Infection Microbiology, 2019) can be followed below.

One assay deals with K. pneumoniae ST258. The assay can be described thus: Potentiation of additional antibiotics (COMPAN1F plates), MIC. It counts as cell-based, Klebsiella pneumoniae. The settings on record: for MIC of antibiotic in presence of peptidomimetic 1: + 1 μM peptidomimetic 1; for MIC of antibiotic in presence of peptidomimetic 15: + 1 μM peptidomimetic 15; for MIC of antibiotic in presence of peptidomimetic 26: + 1 μM peptidomimetic 26; for MIC: Klebsiella pneumoniae, read-out: MIC of antibiotic alone; for MIC / MIC of antibiotic alone: no peptidomimetic. The method, then:
(§1) Minimal inhibitory concentrations (MICs) of peptidomimetics, antibiotics and their combinations were determined by broth microdilution according to the Clinical Laboratory Standards Institute performance standards (Clinical and Laboratory Standards Institute, [2013]). […] Since rifampicin and azithromycin mainly are used to treat infections with Gram-positive pathogens only CLSI clinical breakpoints were available for such bacteria. […] Potentiation of additional antibiotics by peptidomimetics was determined by using commercial 96-well plates containing varied concentrations of standard antibiotics (COMPAN1F; Trek Diagnostic Systems Inc.). The peptidomimetics were added immediately prior to inoculation with pathogen, and then MICs were determined as above. The MICs of peptidomimetic/antibiotic combinations were determined according to the method above, and the concentration ratios were selected based upon checkerboard results with 2:1 and 1:4 ratio of peptidomimetic with rifampicin or azithromycin, respectively. Minimal bactericidal concentrations (MBCs) were determined by using growth-curve assay plates. MIC plates were prepared as above, and then the plates were incubated at 37°C with continuous shaking. Growth was recorded at 10 min intervals as optical density (OD) at 600 nm during 24 h. At 24 h, for wells without growth, a sample was diluted 10-fold in sterile saline (0.9% sodium chloride) and plated onto MHA, following CLSI guidelines (Clinical and Laboratory Standards Institute, [1999]).

A further assay has as its system E. coli ST131. The description is as above. As to conditions: for MIC of antibiotic in presence of peptidomimetic 26: + 0.25 μM peptidomimetic 26; for MIC of antibiotic in presence of peptidomimetic 1: + 0.5 μM peptidomimetic 1; for MIC of antibiotic in presence of peptidomimetic 15: + 0.5 μM peptidomimetic 15; for MIC: Escherichia coli, read-out: MIC of antibiotic alone; for MIC / MIC of antibiotic alone: no peptidomimetic. The format is cell-based, Escherichia coli. The method, then: as §1

For `Cc1nnc(SCC2=C(C(=O)O)N3C(=O)[C@@H](NC(=O)Cn4cnnn4)[C@H]3SC2)s1` [Cefazolin], in the assay on K. pneumoniae ST258, the “MIC of antibiotic in presence of peptidomimetic 1” value is above 16 µg/mL, the “MIC of antibiotic in presence of peptidomimetic 15” value (shortened to “MIC … of peptidomimetic 15”) is above 16 µg/mL, the “MIC of antibiotic in presence of peptidomimetic 26” value (from here on “MIC … of peptidomimetic 26”) is above 16 µg/mL and the minimum inhibitory concentration (MIC) (commonly the lowest concentration that inhibits growth of the organism) is above 16 µg/mL. Moreover, in the assay on E. coli ST131, the “MIC … of peptidomimetic 26” value was above 16 µg/mL, the “MIC of antibiotic in presence of peptidomimetic 1” value is above 16 µg/mL, the “MIC … of peptidomimetic 15” value was above 16 µg/mL and the MIC was above 16 µg/mL.
`COCC1=C(C(=O)O)N2C(=O)[C@@H](NC(=O)/C(=N\OC)c3csc(N)n3)[C@H]2SC1` [Cefpodoxime]: in the assay with K. pneumoniae ST258, the “MIC of antibiotic in presence of peptidomimetic 1” value was above 16 µg/mL, the “MIC … of peptidomimetic 15” value is above 16 µg/mL, the “MIC … of peptidomimetic 26” value was above 16 µg/mL and the MIC was above 16 µg/mL. Besides, in the assay on E. coli ST131, the “MIC … of peptidomimetic 26” value is above 16 µg/mL, the “MIC of antibiotic in presence of peptidomimetic 1” value is above 16 µg/mL, the “MIC … of peptidomimetic 15” value was above 16 µg/mL and the MIC is above 16 µg/mL.
For the compound `Cc1onc(-c2ccccc2)c1C(=O)N[C@@H]1C(=O)N2[C@@H]1SC(C)(C)[C@@H]2C(=O)O` [Oxacillin], in the assay on K. pneumoniae ST258, the “MIC of antibiotic in presence of peptidomimetic 1” value is above 4 µg/mL, the “MIC … of peptidomimetic 15” value is above 4 µg/mL, the “MIC … of peptidomimetic 26” value is above 4 µg/mL and the MIC is above 4 µg/mL. Further, in the assay with E. coli ST131, the “MIC … of peptidomimetic 26” value is above 4 µg/mL, the “MIC of antibiotic in presence of peptidomimetic 1” value is above 4 µg/mL, the “MIC … of peptidomimetic 15” value was above 4 µg/mL and the minimum inhibitory concentration (MIC) is above 4 µg/mL.
Turning to `CC[C@H]1OC(=O)[C@H](C)[C@@H](O[C@H]2C[C@@](C)(OC)[C@@H](O)[C@H](C)O2)[C@H](C)[C@@H](O[C@@H]2O[C@H](C)C[C@H](N(C)C)[C@H]2O)[C@](C)(O)C[C@@H](C)C(=O)[C@H](C)[C@@H](O)[C@]1(C)O` [Erythromycin], in the assay with K. pneumoniae ST258, the “MIC of antibiotic in presence of peptidomimetic 1” value was above 4 µg/mL, the “MIC … of peptidomimetic 15” value is above 4 µg/mL, the “MIC … of peptidomimetic 26” value is above 4 µg/mL and the MIC was above 4 µg/mL. Moreover, in the assay on E. coli ST131, the MIC is above 4 µg/mL and the “MIC of antibiotic alone” value is above 4 µg/mL.
With `C[C@H]1c2cccc(O)c2C(=O)C2=C(O)[C@]3(O)C(=O)C(C(N)=O)=C(O)[C@@H](N(C)C)[C@@H]3[C@@H](O)[C@@H]21` [Doxycycline], in the assay on K. pneumoniae ST258, the “MIC of antibiotic in presence of peptidomimetic 1” value is at most 2 µg/mL, the “MIC … of peptidomimetic 15” value was at most 2 µg/mL, the “MIC … of peptidomimetic 26” value was at most 2 µg/mL and the MIC came out at 4 µg/mL. In the assay with E. coli ST131, the “MIC … of peptidomimetic 26” value is at most 2 µg/mL, the “MIC of antibiotic in presence of peptidomimetic 1” value was at most 2 µg/mL, the “MIC … of peptidomimetic 15” value was at most 2 µg/mL and the MIC was at most 2 µg/mL.
As for `CC1(C)S[C@@H]2[C@H](NC(=O)[C@H](C(=O)O)c3ccsc3)C(=O)N2[C@H]1C(=O)O` [Ticarcillin], in the assay on K. pneumoniae ST258, the “MIC of antibiotic in presence of peptidomimetic 1” value was above 64 µg/mL, the “MIC … of peptidomimetic 15” value is above 64 µg/mL, the “MIC … of peptidomimetic 26” value was above 64 µg/mL and the MIC was above 64 µg/mL. Further, in the assay with E. coli ST131, the “MIC of antibiotic in presence of peptidomimetic 1” value was above 64 µg/mL, the “MIC … of peptidomimetic 15” value was above 64 µg/mL and the MIC was above 64 µg/mL.
As to Penicillin, in the assay with K. pneumoniae ST258, the “MIC of antibiotic in presence of peptidomimetic 1” value was above 8 µg/mL, the “MIC … of peptidomimetic 15” value was above 8 µg/mL, the “MIC … of peptidomimetic 26” value was above 8 µg/mL and the “MIC of antibiotic alone” value was above 8 µg/mL. In the assay with E. coli ST131, the “MIC … of peptidomimetic 26” value was above 8 µg/mL, the “MIC of antibiotic in presence of peptidomimetic 1” value is above 8 µg/mL, the “MIC … of peptidomimetic 15” value is above 8 µg/mL and the “MIC of antibiotic alone” value was above 8 µg/mL.
`CCN1CCN(c2cc3c(cc2F)c(=O)c(C(=O)O)cn3C2CC2)CC1` [Enrofloxacin]: in the assay on K. pneumoniae ST258, the “MIC of antibiotic in presence of peptidomimetic 1” value is above 2 µg/mL, the “MIC … of peptidomimetic 15” value was above 2 µg/mL, the “MIC … of peptidomimetic 26” value is above 2 µg/mL and the MIC is above 2 µg/mL. Besides, in the assay on E. coli ST131, the “MIC … of peptidomimetic 26” value was above 2 µg/mL, the “MIC of antibiotic in presence of peptidomimetic 1” value was above 2 µg/mL, the “MIC … of peptidomimetic 15” value is above 2 µg/mL and the MIC was above 2 µg/mL.
Consider `CN1CCN(c2c(F)cc3c(=O)c(C(=O)O)cn4c3c2OCN4C)CC1` [Marbofloxacin], for which, in the assay with K. pneumoniae ST258, the “MIC of antibiotic in presence of peptidomimetic 1” value was above 2 µg/mL, the “MIC … of peptidomimetic 15” value was above 2 µg/mL, the “MIC … of peptidomimetic 26” value was above 2 µg/mL and the MIC is above 2 µg/mL. Besides, in the assay with E. coli ST131, the “MIC … of peptidomimetic 26” value was above 2 µg/mL, the “MIC of antibiotic in presence of peptidomimetic 1” value is above 2 µg/mL, the “MIC … of peptidomimetic 15” value was above 2 µg/mL and the MIC was above 2 µg/mL.
Consider `CO/N=C(/C(=O)N[C@@H]1C(=O)N2C(C(=O)O)=C([C@@H]3CCCO3)CS[C@H]12)c1csc(N)n1` [Cefovecin], for which, in the assay with K. pneumoniae ST258, the “MIC of antibiotic in presence of peptidomimetic 1” value is above 8 µg/mL, the “MIC … of peptidomimetic 15” value was above 8 µg/mL, the “MIC … of peptidomimetic 26” value was above 8 µg/mL and the “MIC of antibiotic alone” value was above 8 µg/mL. Moreover, in the assay with E. coli ST131, the “MIC … of peptidomimetic 26” value is above 8 µg/mL, the “MIC of antibiotic in presence of peptidomimetic 1” value is above 8 µg/mL, the “MIC … of peptidomimetic 15” value was above 8 µg/mL and the “MIC of antibiotic alone” value was above 8 µg/mL.
`CC1(C)S[C@@H]2[C@H](NC(=O)[C@H](N)c3ccccc3)C(=O)N2[C@H]1C(=O)O` [Ampicillin]: in the assay on K. pneumoniae ST258, the “MIC of antibiotic in presence of peptidomimetic 1” value was above 16 µg/mL, the “MIC … of peptidomimetic 15” value is above 16 µg/mL, the “MIC … of peptidomimetic 26” value is above 16 µg/mL and the MIC is above 16 µg/mL. Further, in the assay on E. coli ST131, the “MIC … of peptidomimetic 26” value was above 16 µg/mL, the “MIC of antibiotic in presence of peptidomimetic 1” value is above 16 µg/mL, the “MIC … of peptidomimetic 15” value is above 16 µg/mL and the MIC is above 16 µg/mL.
